The IC50 is the point on the concentration scale where inhibition reaches its midpoint. High values mean weaker potency in that assay, low ones greater potency in that assay.

We go through 2 molecules from ChEMBL document CHEMBL4052710 (Bioorg Med Chem Lett, 2017).

In one experiment the test system is NCI-H1299. The experiment in a line: Growth inhibition of human H1299 cells incubated for 72 hrs by CCK8 assay. The class given is functional, cell-based. As to conditions: NCI-H1299, 72 h.
The test system of a further experiment is A549. Briefly: Growth inhibition of human A549 cells incubated for 72 hrs by CCK8 assay. The class given is functional, cell-based. As to conditions: A549, 72 h. Background: Tetrazolium dyes change colour on reduction, which living cells bring about.
The subject of a further experiment is MCF7. The experiment in a line: Growth inhibition of human MCF7 cells incubated for 72 hrs by CCK8 assay. The class given is functional, cell-based. The note with it: MCF7, 72 h.
Experiment [1] deals with T47D. Briefly: Growth inhibition of human T47D cells incubated for 72 hrs by CCK8 assay. The class given is functional, cell-based.
Another experiment deals with NCI-H460. The experiment in a line: Growth inhibition of human H460 cells incubated for 72 hrs by CCK8 assay. As to conditions: NCI-H460, 72 h. The class given is functional, cell-based.
The test system of experiment [2] is T47D. Briefly: Induction of apoptosis in human T47D cells assessed as late apoptotic cells level at 5 uM incubated for 48 hrs by annexin V-FITC and propidium iodide staining based flow cytometry (reference value: 0.48%). The class given is functional. (In general: Flow cytometry measures light scatter and fluorescence of single cells or particles in a stream.)

Experiment [3] has as its system T47D. The experiment in a line: Induction of apoptosis in human T47D cells assessed as early apoptotic cells level at 5 uM incubated for 48 hrs by annexin V-FITC and propidium iodide staining based flow cytometry (reference value: 0.75%). The class given is functional.
Experiment [4] has as its system T47D. The experiment in a line: Induction of cell cycle arrest in human T47D cells assessed as increase in G0/G1 phase accumulation incubated for 24 hrs by flow cytometry. The class given is functional, cell-based.
The subject of experiment [5] is T47D. The experiment in a line: Induction of apoptosis in human T47D cells assessed as viable cells level at 5 uM incubated for 48 hrs by annexin V-FITC and propidium iodide staining based flow cytometry (reference value: 96%). The class given is functional.
Experiment [6] deals with T47D. Briefly: Induction of apoptosis in human T47D cells assessed as necrotic cells level at 5 uM incubated for 48 hrs by annexin V-FITC and propidium iodide staining based flow cytometry (reference value: 2.79%). The class given is functional.

Activity calls are given as the source filed them. The calls are words filed in the database; no cut-off is given here.

Consider `COc1cc2nccc(Oc3ccc(NC(=O)C4(C(=O)Nc5ccc(F)cc5)CC4)cc3)c2cc1OC` [CABOZANTINIB], for which the IC50 came to 1.92 µM with NCI-H1299; 4.45 µM in the experiment on A549; 2890 nM in the experiment on MCF7; 4.45 µM with T47D [1]; 5.67 µM in the experiment on NCI-H460.
`CN(C)C(=O)c1cc2cnc(Nc3ccc(N4CCNCC4)cn3)nc2n1C1CCCC1` [RIBOCICLIB]: the IC50 is 7.64 µM in the experiment with NCI-H1299, above 10 µM in the experiment with A549, above 10000 nM in the experiment on MCF7 and above 10 µM with NCI-H460. The Activity is reported as 2.91% in the experiment on T47D [2], 0.34% in the experiment on T47D [3], 94.8% in the experiment with T47D [5] and 1.94% with T47D [6]. Moreover, the outcome with T47D [4] was Active.
